*1 amine or outer side, *2 acyl side, *3 side chain or, on linkers, in order; H or OH if unused. Where a SMILES comes first, the peptide text is derived from it. [ ]: non-standard residue; d: D form. The star is where a group is joined. ξ: configuration not given here. ξLys(Nα-CO-ξAad) = O=C(O)CCCC(NC(=O)NC(CCCCN*)C(=O)O)C(=O)O; Butanoyl(4-(4-NO2Ph)) = O=C(CCCc1ccc([N+](=O)[O-])cc1)*; DOTA = O=C(O)CN1CCN(CC(=O)O)CCN(CC(=O)*)CCN(CC(=O)O)CC1; ξAla(9-anthryl) = NC(Cc1c2ccccc2cc2ccccc12)C(=O)O; X1 = O=C(C1CCC(CN[*:1])CC1)[*:2]; ξK = NCCCCC(N)C(=O)O
Test system: NRG-mice bearing LNCaP tumors
Experiment: Biodistribution (and PET/SPECT imaging) in NRG-mice bearing LNCaP tumors
Assay type: in vivo
Conditions: for Biodistribution: Adrenal gland / Biodistribution: Blood / Biodistribution: Bone / Biodistribution: Brain / Biodistribution: Fat / Biodistribution: Heart / Biodistribution: Intestine / Biodistribution: LNCaP tumor / Biodistribution: Lacrimal gland / Biodistribution: Liver / Biodistribution: Lungs / Biodistribution: Muscle / Biodistribution: Pancreas / Biodistribution: Salivary gland / Biodistribution: Seminal gland / Biodistribution: Spleen / Biodistribution: Stomach / Biodistribution: Testes / Biodistribution: Thyroid / Biodistribution: Urine / Biodistribution: kidney: Avg
Experimental: LNCaP cell line was obtained from ATCC (LNCaP clone FGC, CRL-1740). It was established from a metastatic site of left supraclavicular lymph node of human prostatic adenocarcinoma. Cells were cultured in PRMI 1640 medium supplemented with 10% FBS, penicillin (100 U/mL) and streptomycin (100 μg/mL) at 37° C. in a humidified incubator containing 5% CO2. Cells grown to 80-90% confluence were then washed with sterile phosphate-buffered saline (1×PBS pH 7.4) and trypsinization. The collected cells number was counted with a Hausser Scientific (Horsham, PA) Hemacytometer. Approximately 10 million LNCaP cells were inoculated into the left dorsal flank of immunocomprised NRG mice. The tumours were allowed to grow for 4-6 weeks and used for imaging and biodistribution studies when a volume of 200-600 mm^3 was reached.
PET imaging experiments were conducted using Siemens Inveon micro PET/CT scanner. SPECT imaging experiments were conducted using an MILabs micro SPECT/CT scanner. Each tumor bearing mouse was injected 4-6 MBq of ^68Ga or 18.5 MBq of ^177Lu labeled tracer through the tail vein under anesthesia (2% isoflurane in oxygen). The mice were allowed to recover and roam freely in their cage. At pre-defined time point, the mice were sedated again with 2% isoflurane in oxygen inhalation and positioned in the scanner. A 10-min CT scan was conducted first for localization and attenuation correction after segmentation for reconstructing the PET or SPECT images. Then, a 10-min static PET imaging or a one hour (30 min×2 frames) of static SPECT scan was performed to determined uptake in tumor and other organs. The mice were kept warm by a heating pad during acquisition.
For biodistribution studies, the mice were injected with the radiotracer as described above. The mice were anesthetized with 2% isoflurane inhalation, and euthanized by CO2 inhalation. Blood was withdrawn immediately from the heart, and the organs/tissues of interest were collected. The collected organs/tissues were weighed and counted using a Perkin Elmer (Waltham, MA) Wizard2 2480 gamma counter. The uptake in each organ/tissue was normalized to the injected dose (radioactivity) using a standard curve, and expressed as the percentage of the injected dose per gram of tissue (% ID/g).

O=C([O-])CN1CCN(CC(=O)[O-])CCN(CC(=O)NCCCCC(NC(=O)CNC(=O)CCCc2ccc([N+](=O)[O-])cc2)C(=O)NCC(=O)NCC2CCC(C(=O)NC(Cc3c4ccccc4cc4ccccc34)C(=O)NCCCCC(NC(=O)NC(CCCC(=O)O)C(=O)O)C(=O)O)CC2)CCN(CC(=O)[O-])CC1.[177Lu+3] (stereo not shown) [^177Lu-CCZ02017] ({Butanoyl(4-(4-NO2Ph))}-G[ξK](DOTA)G[X1][ξAla(9-anthryl)]-{ξLys(Nα-CO-ξAad)})
LNCaP tumor uptake compared to 177Lu-HTK03170: substantially improved | Biodistribution: Adrenal gland (3 h p.i.): 3.41 % ID/g | Biodistribution: Blood (3 h p.i.): 14.17 % ID/g | Biodistribution: Bone (3 h p.i.): 0.78 % ID/g | Biodistribution: Brain (3 h p.i.): 0.24 % ID/g | Biodistribution: Fat (3 h p.i.): 1.85 % ID/g | Biodistribution: Heart (3 h p.i.): 3.24 % ID/g | Biodistribution: Intestine (3 h p.i.): 1.03 % ID/g | Biodistribution: LNCaP tumor (3 h p.i.): 39.27 % ID/g | Biodistribution: Lacrimal gland (3 h p.i.): 0.20 % ID/g | Biodistribution: Liver (3 h p.i.): 2.31 % ID/g | Biodistribution: Lungs (3 h p.i.): 6.68 % ID/g | Biodistribution: Muscle (3 h p.i.): 1.18 % ID/g | Biodistribution: Pancreas (3 h p.i.): 2.27 % ID/g | Biodistribution: Salivary gland (3 h p.i.): 2.43 % ID/g | Biodistribution: Seminal gland (3 h p.i.): 0.93 % ID/g | Biodistribution: Spleen (3 h p.i.): 2.25 % ID/g | Biodistribution: Stomach (3 h p.i.): 1.55 % ID/g | Biodistribution: Testes (3 h p.i.): 6.56 % ID/g | Biodistribution: Thyroid (3 h p.i.): 2.87 % ID/g | Biodistribution: Urine (3 h p.i.): 97.91 % ID/g | Biodistribution: kidney (3 h p.i.): 17.31 % ID/g | Biodistribution: Adrenal gland (24 h p.i.): 0.61 % ID/g | Biodistribution: Blood (24 h p.i.): 0.61 % ID/g | Biodistribution: Bone (24 h p.i.): 0.07 % ID/g | Biodistribution: Brain (24 h p.i.): 0.03 % ID/g | Biodistribution: Fat (24 h p.i.): 0.20 % ID/g | Biodistribution: Heart (24 h p.i.): 0.24 % ID/g | Biodistribution: Intestine (24 h p.i.): 0.13 % ID/g | Biodistribution: LNCaP tumor (24 h p.i.): 89.90 % ID/g | Biodistribution: Lacrimal gland (24 h p.i.): 0.04 % ID/g | Biodistribution: Liver (24 h p.i.): 0.31 % ID/g | Biodistribution: Lungs (24 h p.i.): 0.55 % ID/g | Biodistribution: Muscle (24 h p.i.): 0.08 % ID/g | Biodistribution: Pancreas (24 h p.i.): 0.11 % ID/g | Biodistribution: Salivary gland (24 h p.i.): 0.35 % ID/g | Biodistribution: Seminal gland (24 h p.i.): 0.07 % ID/g | Biodistribution: Spleen (24 h p.i.): 0.35 % ID/g | Biodistribution: Stomach (24 h p.i.): 0.15 % ID/g | Biodistribution: Testes (24 h p.i.): 0.48 % ID/g | Biodistribution: Thyroid (24 h p.i.): 0.40 % ID/g | Biodistribution: Urine (24 h p.i.): 9.85 % ID/g | Biodistribution: kidney (24 h p.i.): 5.58 % ID/g | Biodistribution: Adrenal gland (72 h p.i.): 0.34 % ID/g | Biodistribution: Blood (72 h p.i.): 0.07 % ID/g | Biodistribution: Bone (72 h p.i.): 0.02 % ID/g | Biodistribution: Brain (72 h p.i.): 0.01 % ID/g | Biodistribution: Fat (72 h p.i.): 0.15 % ID/g | Biodistribution: Heart (72 h p.i.): 0.10 % ID/g | Biodistribution: Intestine (72 h p.i.): 0.04 % ID/g | Biodistribution: LNCaP tumor (72 h p.i.): 70.84 % ID/g | Biodistribution: Lacrimal gland (72 h p.i.): 0.01 % ID/g | Biodistribution: Liver (72 h p.i.): 0.23 % ID/g | Biodistribution: Lungs (72 h p.i.): 0.16 % ID/g | Biodistribution: Muscle (72 h p.i.): 0.02 % ID/g | Biodistribution: Pancreas (72 h p.i.): 0.04 % ID/g | Biodistribution: Salivary gland (72 h p.i.): 0.14 % ID/g | Biodistribution: Seminal gland (72 h p.i.): 0.03 % ID/g | Biodistribution: Spleen (72 h p.i.): 0.38 % ID/g | Biodistribution: Stomach (72 h p.i.): 0.04 % ID/g | Biodistribution: Testes (72 h p.i.): 0.29 % ID/g | Biodistribution: Thyroid (72 h p.i.): 0.16 % ID/g | Biodistribution: Urine (72 h p.i.): 2.63 % ID/g | Biodistribution: kidney (72 h p.i.): 3.21 % ID/g | Biodistribution: Adrenal gland (144 h p.i.): 0.23 % ID/g | Biodistribution: Blood (144 h p.i.): 0.01 % ID/g | Biodistribution: Bone (144 h p.i.): 0.02 % ID/g | Biodistribution: Brain (144 h p.i.): 0.01 % ID/g | Biodistribution: Fat (144 h p.i.): 0.22 % ID/g | Biodistribution: Heart (144 h p.i.): 0.04 % ID/g | Biodistribution: Intestine (144 h p.i.): 0.01 % ID/g | Biodistribution: LNCaP tumor (144 h p.i.): 116.43 % ID/g | Biodistribution: Lacrimal gland (144 h p.i.): 0.00 % ID/g | Biodistribution: Liver (144 h p.i.): 0.09 % ID/g | Biodistribution: Lungs (144 h p.i.): 0.08 % ID/g | Biodistribution: Muscle (144 h p.i.): 0.01 % ID/g | Biodistribution: Pancreas (144 h p.i.): 0.01 % ID/g | Biodistribution: Salivary gland (144 h p.i.): 0.05 % ID/g | Biodistribution: Seminal gland (144 h p.i.): 0.01 % ID/g | Biodistribution: Spleen (144 h p.i.): 0.37 % ID/g | Biodistribution: Stomach (144 h p.i.): 0.02 % ID/g | Biodistribution: Testes (144 h p.i.): 0.15 % ID/g | Biodistribution: Thyroid (144 h p.i.): 0.11 % ID/g | Biodistribution: Urine (144 h p.i.): 1.88 % ID/g | Biodistribution: kidney (144 h p.i.): 1.98 % ID/g | Biodistribution: Adrenal gland (240 h p.i.): 0.02 % ID/g | Biodistribution: Blood (240 h p.i.): 0.00 % ID/g | Biodistribution: Bone (240 h p.i.): 0.01 % ID/g | Biodistribution: Brain (240 h p.i.): 0.00 % ID/g | Biodistribution: Fat (240 h p.i.): 0.06 % ID/g | Biodistribution: Heart (240 h p.i.): 0.01 % ID/g | Biodistribution: Intestine (240 h p.i.): 0.01 % ID/g | Biodistribution: LNCaP tumor (240 h p.i.): 95.45 % ID/g | Biodistribution: Lacrimal gland (240 h p.i.): 0.00 % ID/g | Biodistribution: Liver (240 h p.i.): 0.06 % ID/g | Biodistribution: Lungs (240 h p.i.): 0.14 % ID/g | Biodistribution: Muscle (240 h p.i.): 0.01 % ID/g | Biodistribution: Pancreas (240 h p.i.): 0.00 % ID/g | Biodistribution: Salivary gland (240 h p.i.): 0.01 % ID/g | Biodistribution: Seminal gland (240 h p.i.): 0.00 % ID/g | Biodistribution: Spleen (240 h p.i.): 0.50 % ID/g | Biodistribution: Stomach (240 h p.i.): 0.01 % ID/g | Biodistribution: Testes (240 h p.i.): 0.08 % ID/g | Biodistribution: Thyroid (240 h p.i.): 0.03 % ID/g | Biodistribution: Urine (240 h p.i.): 0.43 % ID/g | Biodistribution: kidney (240 h p.i.): 0.46 % ID/g
